Experimental data taken from US8314234B2, “Bicyclic pyrimidine kinase inhibitors” (Janssen Pharmaceutica N.V., priority 2006, dated 2012).

How the values were obtained:
[1] = target: T1, EGFR (Homo sapiens, UniProt P00533); assay: EGFR Kinase Assay; assay type: biochemical; conditions: test concentration of 2 μM
T1 construct: intracellular portion of EGFR started at nucleotide 2189 (corresponding to amino acid 667) and ended at the termination codon; made in house; host or cells: Sf9 insect cells (baculovirus)
Source text: The EGFR kinase used was a fusion of Glutathione-S-Transferase (GST) and a PCR amplified intracellular portion of EGFR (NM_005228). The intracellular portion of EGFR started at nucleotide 2189 (corresponding to amino acid 667) and ended at the termination codon. The portion was PCR amplified with primers that added the lambda attB sequences to each end, recombined into an entry vector, then into a GST destination vector (as described in Gateway Technologies Manual by Invitrogen Corporation, Carlsbad, Calif.).
The destination vector was recombined in the DH10BAC strain of bacteria to produce a bacmid. The bacmid was transfected into Sf9 cells and the supernatant containing the baculovirus was collected. The GSTEGFR protein was purified using large cultures of Sf9 cells infected with stock virus. After an appropriate period of time, the cells were collected and lysed. The GSTEGFR was then purified from the lysate on Glutathione-Sepharose columns (as described by Amersham Biosciences, Buckinghamshire, United Kingdom).
The EGFR substrate was prepared by biotinylating polyGluTyr (128 mg) (Sigma, St. Louis, Mo.) in a 1×PBS buffer incubated together with a 12-fold molar excess of Sulfo-NHS-LC-Biotin on ice for at least 2 hrs. The free biotin was separated from the biotinylated polyGluTyr on a gel filtration column.
A mixture of a 10× kinase buffer (500 mM Tris at pH 8.0, 100 mM Magnesium Chloride and 1 mM Sodium Vanadate), DTT (1 mM final from 500 mM stock), ATP (5 μM final from 10 mM stock), biotinylated polyGluTyr (10 μg/μL stock), γ-^33P ATP (10 μCi/μL stock) and water was added to each well (90 μL/well) of a Streptavidin Flashplate (Perkin Elmer, Wellesley, Mass.).
Test compound in 100% DMSO (2 μL) was added to the appropriate wells. Diluted GSTEGFR (1:300 dilution in 50 mM Tris at pH 8.0 and 0.1% bovine serum albumin) (10 μL) was added to the wells to initiate the reactions.
The plates were incubated at 30° C. for 1 hr with shaking. The reacted contents were removed and the plates were sequentially washed three times with a 1×PBS stop buffer (300 μL without Magnesium and Calcium) and 100 mM EDTA. After the final wash, the same stop buffer (200 μL) was added to the wells. The plates were then sealed and read on the TopCount scintillation counter.
Test compounds were assayed in triplicate at 16 concentrations at half-log dilutions starting at 200 uM. A maximum and minimum signal for the assay was determined on each plate. The percent inhibition of a test compound was calculated according to the formula
For a series of test concentrations, the IC50 was derived by graphing percent inhibition against the log of the concentrations tested for a given compound. The percent inhibition results are shown in Table 1 at a test concentration of 2 μM. For those compounds with an IC50, the IC50 value is shown in parentheses.

[2] = target: T2, CDK1 (Homo sapiens, UniProt P06493); assay: CDK-1 screening assay; assay type: biochemical
T2 construct: purchased New England Biolabs, Beverly, Mass; 6020; host or cells: insect cells
Experimental: (§1) 70 μL of the kinase reaction mixture was dispensed into the well of a streptavidin coated FlashPlate™ (Cat. #SMP103, NEN, Boston, Mass.).
(§2) Test compound stock in 100% DMSO (1 μL) was added to the wells resulting in a final concentration of 1% DMSO in the reaction with a 100 μL final reaction volume. Each enzyme was diluted in 50 mM Tris-HCl pH=8.0, 0.1% BSA and 30 μL was added to each well to initiate the reaction. The reaction was incubated for one hour at 30° C. At the end of the 1 hr incubation, the reaction was terminated by aspirating the mixture from the plate and washing the wells twice with PBS containing 100 mM EDTA. The biotinylated peptide substrate became immobilized on the Flashplate and the incorporation of ^33P-γ-ATP was measured by reading the plate on a scintillation counter. Inhibition of the enzymatic activity was measured by observing a reduced amount of ^33P-γ-ATP incorporated into the immobilized peptide.
(§3) A maximum and minimum signal for the assay was determined on each plate. The percent inhibition of a test compound was calculated according to the formula: […]
(§4) The term “ND” means “not determined.”

[3] = target: T3, CDK2 (Homo sapiens, UniProt P24941); assay: CDK-2 screening assay; assay type: biochemical
T3 construct: purchased Upstate Biotech, Lake Placid, N.Y
Experimental: as §1, §2
The CDK2 enzyme in complex with cyclin A is commercially available (Upstate Biotech, Lake Placid, N.Y.).
as §3, §4

[4] = target: VEGFR2 (Rattus norvegicus, UniProt O08775); assay: VEGFR2 screening assay; assay type: biochemical
Experimental: A kinase reaction mixture was prepared containing 50 mM Tris-HCl pH=8, 10 mM MgCl2, 0.1 mM […], 1 mM DTT, 10 μM ATP, 0.025 μM biotinylated histone-H1 peptide substrate and 0.2 μCuries per well ^33P-γ-ATP (2000-3000 Ci/mmol). 70 μL of the kinase reaction mixture was dispensed into the well of a streptavidin coated FlashPlate™ (Cat. #SMP103, NEN, Boston, Mass.).
as §2
The VEGF-R2 enzyme is a fusion protein containing a polyhistidine tag at the N terminus followed by amino acids 786 to 1343 of the rat VEGF-R2 kinase domain (Accession number U93306). The assay used 150 ng of the N-terminal biotinylated peptide biotin-[…]-amide SEQ ID NO: 2) (VEGF-R2) per well.
as §3
For a series of test concentrations, the IC50 was derived by graphing percent inhibition against the log of the concentrations tested for a given compound with results shown in Table 2. For those compounds without an IC50, the inhibition values in percent are shown at a test concentration of 2 μM. The term “ND” means “not determined.”

[5] = tested on: HeLa cervical adenocarcinoma; assay: Cell Proliferation Inhibition Assay (14C-thymidine incorporation), HeLa; assay type: cell-based; conditions: Homo sapiens
Source text: (§5) The ability of a test compound to inhibit unregulated cell proliferation may be determined by measuring incorporation of ^14C-labelled thymidine into newly synthesized DNA within cell lines derived from carcinomas originating from several tissues. Accordingly, the anti-proliferative effect of a compound on cells with a variety of phenotypes may be determined.
(§6) Carcinoma cell lines include those such as HeLa cervical adenocarcinoma (American Type Culture Collection (ATCC), Virginia, Cat. #CCL-2), A375 malignant melanoma (ATCC CRL-1619), SK-OV-3 ovarian adenocarcinoma (ATCC HTB-77), HCT-116 colon carcinoma (CCL-247), PC-3 prostate adenocarcinoma (ATCC CRL-1435), and MDA-MB-231 (Xenogen Corp.)
(§7) The carcinoma cells are trypsinized and counted. The cells (3000-8000 count) are added to each well of a 96-well CytoStar tissue culture treated scintillating microplate (Amersham #RPNQ0160) in complete medium (100 μL) and the plate is then incubated in complete medium for 24 hrs at 37° C. in an inert atmosphere containing 5% CO2. Test compound (1 μL) in 100% DMSO is added to the plate test-wells with DMSO only added to control-wells. The plate is incubated in complete medium for a second 24 hr period at 37° C. in an atmosphere containing 5% CO2.
(§8) An aliquot of a solution of Methyl ^14C-thymidine (56 mC/mmol) (NEN #NEC568 or Amersham #CFA532) and complete medium (20 uL to provide 0.2 μCi/well) is then added to each well and the plate is incubated for a third 24 hr period at 37° C. in an atmosphere containing 5% CO2. The plate contents are then discarded, the plate is washed twice with PBS (200 μL) and then PBS (200 μL) is added to each well. The plate is sealed and the degree of methyl ^14C-thymidine incorporation is quantified on a Packard Top Count.

[6] = tested on: HCT-116 colon carcinoma; assay: Cell Proliferation Inhibition Assay (14C-thymidine incorporation), HCT-116; assay type: cell-based; conditions: Homo sapiens
Source text: as §5, §6, §7, §8

[7] = tested on: A375 malignant melanoma; assay: Cell Proliferation Inhibition Assay (14C-thymidine incorporation), A375; assay type: cell-based; conditions: Homo sapiens, A-375
Source text: as §5, §6, §7, §8

T1 sequence (P00533 669-1210 limits assumed): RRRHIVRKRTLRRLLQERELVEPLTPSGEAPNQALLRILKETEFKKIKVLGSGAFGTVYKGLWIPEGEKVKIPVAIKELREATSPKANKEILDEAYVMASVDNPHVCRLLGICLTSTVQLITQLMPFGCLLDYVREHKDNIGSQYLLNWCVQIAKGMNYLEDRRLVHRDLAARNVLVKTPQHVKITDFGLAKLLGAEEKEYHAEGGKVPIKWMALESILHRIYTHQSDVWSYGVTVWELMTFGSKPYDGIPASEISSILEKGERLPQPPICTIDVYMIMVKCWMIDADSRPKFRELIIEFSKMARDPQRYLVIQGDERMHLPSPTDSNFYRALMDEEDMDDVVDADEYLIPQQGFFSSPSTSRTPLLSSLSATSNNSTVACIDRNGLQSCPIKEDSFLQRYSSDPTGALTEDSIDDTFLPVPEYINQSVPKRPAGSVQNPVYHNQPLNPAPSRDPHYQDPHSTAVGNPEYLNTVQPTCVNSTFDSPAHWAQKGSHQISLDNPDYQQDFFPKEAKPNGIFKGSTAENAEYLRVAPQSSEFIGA
T2 sequence (P06493 whole entry): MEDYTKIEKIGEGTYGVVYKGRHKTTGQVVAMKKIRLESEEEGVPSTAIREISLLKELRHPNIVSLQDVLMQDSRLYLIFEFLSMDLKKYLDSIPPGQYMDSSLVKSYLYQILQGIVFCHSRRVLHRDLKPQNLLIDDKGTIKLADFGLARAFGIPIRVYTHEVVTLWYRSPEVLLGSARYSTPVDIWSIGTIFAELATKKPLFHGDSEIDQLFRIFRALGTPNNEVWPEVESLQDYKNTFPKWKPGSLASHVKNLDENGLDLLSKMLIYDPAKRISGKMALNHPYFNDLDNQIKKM
T2 sequence (P14635 whole entry partner): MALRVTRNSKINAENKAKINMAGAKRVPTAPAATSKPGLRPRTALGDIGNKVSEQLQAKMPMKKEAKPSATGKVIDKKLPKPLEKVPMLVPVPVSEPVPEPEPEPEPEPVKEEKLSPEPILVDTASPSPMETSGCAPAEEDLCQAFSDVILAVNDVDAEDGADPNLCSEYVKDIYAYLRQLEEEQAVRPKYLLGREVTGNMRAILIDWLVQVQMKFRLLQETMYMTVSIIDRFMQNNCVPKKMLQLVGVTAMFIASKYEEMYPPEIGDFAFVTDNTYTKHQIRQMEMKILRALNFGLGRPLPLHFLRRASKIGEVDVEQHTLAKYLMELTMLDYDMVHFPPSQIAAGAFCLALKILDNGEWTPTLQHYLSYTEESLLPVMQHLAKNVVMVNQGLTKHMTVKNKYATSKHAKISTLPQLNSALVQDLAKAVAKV
Chain of VEGFR2 (O08775 786-1343): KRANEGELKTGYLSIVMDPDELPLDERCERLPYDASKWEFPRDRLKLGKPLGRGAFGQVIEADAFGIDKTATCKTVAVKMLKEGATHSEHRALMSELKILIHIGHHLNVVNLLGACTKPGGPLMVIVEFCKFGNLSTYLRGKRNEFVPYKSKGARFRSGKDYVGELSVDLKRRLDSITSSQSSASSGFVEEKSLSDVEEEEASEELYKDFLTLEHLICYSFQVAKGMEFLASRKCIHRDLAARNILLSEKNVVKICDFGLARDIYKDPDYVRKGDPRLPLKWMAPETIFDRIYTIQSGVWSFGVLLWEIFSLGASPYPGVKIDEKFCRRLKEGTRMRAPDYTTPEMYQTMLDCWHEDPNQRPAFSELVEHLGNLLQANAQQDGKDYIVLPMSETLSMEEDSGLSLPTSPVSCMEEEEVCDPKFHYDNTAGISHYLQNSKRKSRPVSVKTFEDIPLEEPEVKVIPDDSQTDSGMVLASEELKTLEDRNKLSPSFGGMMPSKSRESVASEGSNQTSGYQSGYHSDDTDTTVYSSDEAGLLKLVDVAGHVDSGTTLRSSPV

With `CC(=O)n1ncc2c(Nc3ccc(S(=O)(=O)NCCO)cc3)nc(Nc3ccc(S(=O)(=O)NCCO)cc3)nc21` [Cpd 21, 1-acetyl-N^4,N^6-bis-{4-[(2-hydroxy-ethyl)-amino-sulfonyl]-phenyl}-1H-pyrazolo[3,4-d]pyrimidine-4,6-diamine] the inhibition at 2 µM [1] was 53%, the IC50 [2] was 1.87 µM and the IC50 [3] was 0.533 µM. It also gave an IC50 [4] of 13.2 µM, an IC50 [5] of 100 µM and an IC50 [6] of 100 µM. For the same compound, the IC50 [7] was 100 µM.
Compound `NS(=O)(=O)c1ccc(Nc2nc(Nc3ccc(S(N)(=O)=O)cc3)c3cnoc3n2)cc1` [Cpd 5, N^4,N^6-bis-[4-(amino-sulfonyl)-phenyl]-isoxazolo[5,4-d]pyrimidine-4,6-diamine] has an inhibition at 2 µM [1] of 39%, an IC50 [2] of 2.53 µM and an IC50 [3] of 0.443 µM. The IC50 [4] was 2.45 µM, the IC50 [5] was 70.7 µM and the IC50 [6] was 38.2 µM. The IC50 [7] was 27 µM.
`O=S(=O)(NCCO)c1ccc(Nc2nc(Nc3ccccc3)c3cnoc3n2)cc1` [Cpd 20, N-(2-hydroxy-ethyl)-4-(4-phenylamino-isoxazolo[5,4-d]pyrimidin-6-ylamino)-benzenesulfonamide] gave an inhibition at 2 µM [1] of 26%, an IC50 [2] of over 100 µM and an IC50 [3] of 4.4 µM. For the same compound, the IC50 [4] was 23.1 µM, the IC50 [5] was 25 µM and the IC50 [6] was 100 µM. The IC50 [7] was 100 µM.
`NS(=O)(=O)c1ccc(Nc2nc(Nc3ccccn3)c3cnoc3n2)cc1` [Cpd 7, 4-[4-(pyridin-2-ylamino)-isoxazolo[5,4-d]pyrimidin-6-ylamino]-benzenesulfonamide] gave an inhibition at 2 µM [1] of 21%, an IC50 [2] of over 100 µM and an IC50 [3] of over 10 µM. For the same compound, the IC50 [4] was over 100 µM, the IC50 [5] was 100 µM and the IC50 [6] was 10 µM. It also gave an IC50 [7] of 100 µM.
With `O=S(=O)(NCCO)c1ccc(Nc2nc(Nc3ccc(C(F)(F)F)cc3)c3cn[nH]c3n2)cc1` [Cpd 10, N-(2-hydroxy-ethyl)-4-[4-(4-trifluoromethyl-phenylamino)-1H-pyrazolo[3,4-d]pyrimidin-6-ylamino]-benzenesulfonamide] the inhibition at 2 µM [1] was 31%, the IC50 [2] was 1.52 µM and the IC50 [3] was 0.377 µM. It also gave an IC50 [4] of 3.49 µM, an IC50 [5] of 3.4 µM and an IC50 [6] of 10 µM. It also gave an IC50 [7] of 1 µM.
`c1cc2[nH]ncc2cc1Nc1nc(Nc2ccc3[nH]ncc3c2)c2cn[nH]c2n1` [Cpd 9, N^4,N^6-bis-(1H-indazol-5-yl)-1H-pyrazolo[3,4-d]pyrimidine-4,6-diamine] showed an inhibition at 2 µM [1] of 47%, an IC50 [2] of 0.145 µM and an IC50 [3] of 0.04 µM. The IC50 [4] was 0.43 µM, the IC50 [5] was 100 µM and the IC50 [6] was 100 µM. The IC50 [7] was 100 µM.
`O=S(=O)(NCCO)c1ccc(Nc2nc(Nc3ccc(S(=O)(=O)NCCO)cc3)c3cnoc3n2)cc1` [Cpd 19, N^4,N^6-bis-{4-[(2-hydroxy-ethyl)-amino-sulfonyl]-phenyl}-isoxazolo[5,4-d]pyrimidine-4,6-diamine] was tested, and the inhibition at 2 µM [1] was 12%, the IC50 [2] was over 100 µM and the IC50 [3] was 9.18 µM. The IC50 [4] was 75 µM, the IC50 [5] was 100 µM and the IC50 [6] was 100 µM. The IC50 [7] was 100 µM.
Compound `O=S(=O)(NCCO)c1ccc(Nc2nc(Nc3ccc(S(=O)(=O)NCCO)cc3)c3cnn(C4CCCCC4)c3n2)cc1` [Cpd 17, 1-cyclohexyl-N^4,N^6-bis-{4-[(2-hydroxy-ethyl)-amino-sulfonyl]-phenyl}-1H-pyrazolo[3,4-d]pyrimidine-4,6-diamine] has an inhibition at 2 µM [1] of 22%, an IC50 [2] of 12 µM and an IC50 [3] of 3.88 µM. It also gave an IC50 [4] of 90 µM, an IC50 [5] of 100 µM and an IC50 [6] of 100 µM. The IC50 [7] was 100 µM.
Compound `CC(C)(C)n1ncc2c(Nc3ccc(S(=O)(=O)NCCO)cc3)nc(Nc3ccc(S(=O)(=O)NCCO)cc3)nc21` [Cpd 18, 1-t-butyl-N^4,N^6-bis-{4-[(2-hydroxy-ethyl)-amino-sulfonyl]-phenyl}-1H-pyrazolo[3,4-d]pyrimidine-4,6-diamine] has an inhibition at 2 µM [1] of 23%, an IC50 [2] of 2.79 µM and an IC50 [3] of 0.493 µM. It also gave an IC50 [4] of over 100 µM, an IC50 [5] of 100 µM and an IC50 [6] of 100 µM. It also gave an IC50 [7] of 1.2 µM.
Compound `c1cc2cc(Nc3nc(Nc4ccc5[nH]ccc5c4)c4cn[nH]c4n3)ccc2[nH]1` [Cpd 13, N^4,N^6-bis-(1H-indol-5-yl)-1H-pyrazolo[3,4-d]pyrimidine-4,6-diamine] has an inhibition at 2 µM [1] of -4%, an IC50 [2] of 2.59 µM and an IC50 [3] of 0.494 µM. The IC50 [4] was 3.67 µM, the IC50 [5] was 4 µM and the IC50 [6] was 2.6 µM. For the same compound, the IC50 [7] was 1.9 µM.
For `NS(=O)(=O)c1ccc(Nc2nc(Nc3ccc4[nH]ncc4c3)nc3[nH]ncc23)cc1` [Cpd 12, 4-[6-(1H-indazol-5-ylamino)-1H-pyrazolo[3,4-d]pyrimidin-4-ylamino]-benzenesulfonamide], the inhibition at 2 µM [1] was 44%, the IC50 [2] was 0.568 µM and the IC50 [3] was 0.432 µM. For the same compound, the IC50 [4] was 0.536 µM, the IC50 [5] was 36 µM and the IC50 [6] was 10 µM. It also gave an IC50 [7] of 85.2 µM.
